Compound | melting point
Nc1nc(-c2ccccc2Cl)nc(N2CCCCC2)n1 | 184 to 186 °C
O=C(CN1CCC(Cc2ccc(F)cc2)CC1)Nc1ccc2cn[nH]c2c1 | 135 to 137 °C
Cn1cc(-c2ccc(F)cc2)c(=O)c(-c2cccc(C(F)(F)F)c2)c1 | 133 to 134 °C
CCn1nc(C(F)(F)F)c(CS(=O)(=O)C2=NOC(C)(CCl)C2)c1C#N (stereo not drawn) | 76 to 78 °C
O=C(/C=C\[C@H]1CC1(c1ccccc1)c1ccccc1)NCCCCc1cccnc1 | 115 to 116 °C
CCCCc1nc2ccc(C(=O)O)cc2n1Cc1ccccc1Cl | 238 to 241 °C
COc1cc2ccc(CO)c(-c3ccnc(Br)c3)c2cc1OC | 150 to 153 °C
CC(NC(=O)OC(C)(C)C)C(=O)Nc1cc(OCC(F)(F)F)ccc1-c1cccnc1 (stereo not drawn) | 149 to 152 °C
COc1ccc(C2CC(=O)N(c3ccccc3)C2)cc1OC (stereo not drawn) | 104 °C
O=C(O)c1ccc(OCCCON=Cc2cc3ccccc3n2Cc2ccccc2)c(-c2ccc(C(F)(F)F)cc2)c1 | 196 to 197 °C
COC(=O)c1cc(COC(C)=O)cc(-n2cccc2C#N)c1 | 85 to 86 °C
COc1ccccc1N1CCN(C(=O)[C@@H](Cc2cccnc2)NC(=O)OC(C)(C)C)CC1 | 142 °C
CCCCCNC(=O)c1ccc(N2CCC(N3C(=O)C(F)(F)c4ccccc43)CC2)nn1 | 100 to 102 °C
O=C(CC1CCN(CCn2c(=O)[nH]c3ccccc32)CC1)c1ccc(F)cc1 | 181 °C
CCCCCc1ccc(-c2ccc(C(C)O)cc2)cc1 (single isomer, unassigned; (-)) | 83.8 °C
N#CN=C1NCCN1Cc1cccnc1 | 126 to 128 °C
COc1cc(CC(=O)NCCCc2ccc(C)c(C)c2)ccc1OCCNCCN | 119 to 120 °C
COC(=O)CSC=C1C(=O)OC(C)(C)OC1=O | 117 to 118 °C
COC(=O)Cn1c(=O)[nH]c(=O)n(-c2cc(Oc3ccc(C(F)(F)F)c(Cl)c3)ccc2[N+](=O)[O-])c1=O | 166 to 167 °C
O=c1[nH]c2cc(Cl)ccc2c(O)c1-c1cccc(Oc2ccccn2)c1 | 269 to 271 °C
CC1OC(CN(C)C(=O)Nc2nnc(S(=O)(=O)N(C)C)s2)OC1C (stereo not drawn) | 133 to 134 °C
O=S1(=O)NC(c2ccccc2)Nc2ccccc21 (stereo not drawn) | 126 to 128 °C
Cc1nnc(-c2cc(Cl)c(Cl)c(Cl)n2)s1 | 148 to 150 °C
CN(C)C=C(C#N)C(=O)NCc1ccccc1 | 160 to 161 °C

Compound | melting point
CCOC(=O)C1[C@@H]2[C@@H](O)[C@@H]3O[C@H](c4ccc(C(F)(F)F)cc4)OC[C@H]3O[C@H]12 (stereo partly drawn) | 128 to 131 °C
O=C(C1CCCCC1)N1C=C2c3ccccc3CCN2C(=O)C1 | 136 to 138 °C
CN(Cc1cccc2c1C(=O)N(C1CCC(=O)NC1=O)C2=O)C(=O)c1ccco1 (stereo not drawn) | 184 to 186 °C
NC[C@H]1CN(c2ccc(N3CCOCC3=O)cc2)C(=O)O1 | 145 to 147 °C
O=C1[C@H]2CCC[C@H]2N(C(=O)CCCCl)c2ccccc2N1Cc1ccccc1 (relative stereo) | 169 to 170 °C
CCCCOc1ccc2cc(O)ccc2c1 | 100 to 102 °C
O=c1c([N+](=O)[O-])c[nH]c2sccc12 | 288 to 291 °C
CCC(=O)c1[nH]c(=O)[nH]c1CC | 212 to 213 °C
O=C(O)c1ccc(C(=O)Nc2cc3c4c(c2)CCCC4CCC3)nc1 | 252 to 253 °C
CCCNC(=S)n1nc(Oc2ncc(C(F)(F)F)cc2Cl)cc1C | 51 to 53 °C
CN1c2ccccc2C(C)(C)C1CC#N (stereo not drawn) | 74 to 76 °C
CCC(C(=O)N(C)C)n1cc(C(C)C)c(-c2ccccc2)n1 (stereo not drawn) | 89 to 90 °C
CC(C)(C)OC(=O)c1ncn2c1[C@@H]1CCCN1C(=O)c1c(Br)cccc1-2 | 206 to 208 °C
Cc1ccc(-c2ccc3c(c2)C=C(C(=O)Nc2ccc(C(=O)C4CCCCN4C(=O)OC(C)(C)C)cc2)CCO3)cc1 (stereo not drawn) | 223 to 224 °C
COCC(=O)Nc1cc2c(cc1Br)CCC2 | 84 to 86 °C
Nc1nc(N)c2[nH]c(C3OC(CO)C(O)C3O)nc2n1 (stereo not drawn) | 234 to 237 °C
CC(C)C(C#N)Nc1ccc(C(F)(F)F)cc1Cl (stereo not drawn) | 63.2 to 64.8 °C
O=C(NCCCC[C@H](O)C(=O)O)OCc1ccccc1 | 79 to 81 °C
C[C@@H]1C[C@](C)(O)[C@H](C)N1c1ccc(C#N)c(Cl)c1 | 132 to 133 °C
CC(C)NCC(O)COc1cccc2c1SCCC2 (stereo not drawn) | 91 to 92 °C
Cc1cc(C2=NN[C@H](C)Cc3cc4c(cc32)OCO4)ccc1N | 193 to 196 °C
N#Cc1c[nH]c(C(F)(F)F)c1-c1ccc(Cl)cc1 | 114 to 115 °C
CCOC(=O)c1cccn2c(S(=O)(=O)Cl)c(C)nc12 | 182 to 183 °C
CC(C)(C#N)c1cc(Cn2ccnc2)cc(C(N)=O)c1 | 149 to 150 °C

Continued, values first:

melting point | Compound
146 to 148 °C | CCCCOc1nc2cccc(C(=O)OC)c2n1Cc1ccccc1-c1ccccc1-c1nnn[nH]1
132 to 135 °C | CS(=O)(=O)c1ccc(-c2nn(CCc3ccccc3)c(C(F)(F)F)c2-c2ccc(F)cc2)cc1
136 to 138 °C | Cc1c(C=O)cc(-c2ccc(S(C)(=O)=O)cc2)n1-c1ccc(F)cc1
170 °C | Cc1cc(Br)cc2c(C(C)C)c[nH]c12
110 to 112 °C | COc1cc(NS(C)(=O)=O)c(I)cc1N
236 °C | CCCc1c(C(=O)O)c(C(F)F)nc(C(F)(F)F)c1C(=O)O
87 °C | OC(c1ccccc1)(c1ccccc1)c1ccccc1Cl
136 to 137 °C | COc1ccc(CCNC(=O)C(=O)NO)cc1OC1CCCC1
129 to 131 °C | C=CCOc1nc(N(CC)Cc2cc(Br)ccc2OCc2ccccc2)ccc1C(=O)O
185 °C | Cc1nc(Br)c(Br)n1Cc1cc2c(cc1Cl)OCO2
162 to 164 °C | O=C1C(=Cc2ccc(Cl)cc2)CC23OC2C=CC=C13 (stereo not drawn)
181 to 182 °C | O=C(NCc1ccccc1O)[C@@H]1CCCN(c2cccc3c2C(=O)N(Cc2ccncc2)C3=O)C1
87 to 91 °C | COc1cccc(C2C(=O)NC(=O)C2c2cn3c4c(cccc24)CCC3)c1 (stereo not drawn)
193 to 194 °C | CCCn1nc2c(N)nc3ccccc3c2c1NCC
229 to 230 °C | Cc1ccc(-c2nc3ccccc3[nH]2)nc1
246 °C | O=c1[nH]c2ccc(C(c3ccc(Cl)cc3)n3ccnc3-c3ccccc3)cc2c(Oc2cccc(Cl)c2)c1CO (stereo not drawn)
73 to 75 °C | CCCNC(=O)C1(CCCCO)c2ccccc2-c2ccccc21
94 to 99 °C | COc1cc(N2CCC(N3CCN(C)CC3)CC2)ccc1N
98 to 100 °C | N#Cc1ccc(C(=O)c2ccccc2S)cc1
131 to 135 °C | O=[N+]([O-])c1cnccc1NCC(O)CO (stereo not drawn)
84 to 86 °C | C=C(C(=O)NCc1ccccc1)c1ccccc1
191 to 192 °C | O=C(NCc1ccccn1)Nc1cc(N2CC3(CCCCC3)CC2=O)ccn1
98 to 102 °C | C[C@@H](OS(C)(=O)=O)C(=O)N1C(=O)N(C)C[C@H]1C(=O)OCc1ccccc1
85 to 86 °C | O=C(C(=O)c1ccc(Oc2ccc(Br)cc2)cc1)c1ccccc1
113 to 114 °C | CC(=O)OCC1OC(Oc2ccsc2Cc2ccc(OC(F)(F)F)cc2)C(OC(C)=O)C(OC(C)=O)C1OC(C)=O (stereo not drawn)
148 °C | Cc1c(NC(=O)c2ccc(OCCCC(F)(F)F)cc2F)ccc2cc(CN3CCCC3)cnc12
230 °C | CCCCc1[nH]c2ccc([N+](=O)[O-])cc2c1C(=O)c1ccc(O)cc1
202 to 205 °C | CC1(c2ccc([N+](=O)[O-])cc2)Cc2cc(OCC(=O)O)c(Cl)c(Cl)c2C1=O (stereo not drawn)

melting point | Compound
150 to 152 °C | CCCN1CC(c2ccc(F)cc2)=C(c2ccc(S(C)(=O)=O)cc2)C1=O
104 to 105 °C | CCCCCCS(=O)(=O)Cc1ccc(C(C)(C)NC(=O)OC)cc1
295 °C | CC(=O)Nc1nc(N)c2ncn(C3OC(C(O)C(=O)O)C(O)C3O)c2n1 (stereo not drawn)
297 to 299 °C | c1ccc(Nc2nc3c(s2)CCc2[nH]ncc2-3)nc1
122 to 125 °C | Cc1nc(-c2ccccc2)cc(-c2cccc(C=O)c2)c1C(=O)NCCN1CCOCC1
177 to 178 °C | COc1cc2c(Nc3cccc(Cl)c3F)ncnc2cc1OC1CCN(C(=O)C2(O)CC2)CC1
113 to 115 °C | Cc1cc(C2CC2)nc(N)n1
283 to 284 °C | CN(C)C(=O)c1nc(-c2cccnc2)nc2c1c1ccc(Cl)cc1n2C
242 to 245 °C | COc1ccc(-c2nc(C(O)C(F)(F)F)[nH]c2-c2ccc(OC)cc2)cc1 (stereo not drawn)
46.5 to 47.5 °C | O=C1C2CCCN2S(=O)(=O)N1CCl (stereo not drawn)
221 to 222 °C | CN1C(=O)CC(c2ccc(N)cc2)C1C(O)c1ccc(-c2ccccc2)s1 (stereo not drawn)
144 to 148 °C | Cc1cc(S(N)(=O)=O)sc1S(=O)(=O)CCO
75 to 77 °C | CC(C)(C)OC(=O)NCC(Cl)c1ccco1 (stereo not drawn)
83 to 84 °C | COc1c(O)ccc2cc[nH]c12
140 to 141 °C | C/C(=C\c1ccc(C=O)cc1)c1ccc2c(c1)C(C)(C)CCC2(C)C
> 200 °C | Nc1ncnc(N2CCc3ccccc3CC2)c1[N+](=O)[O-]
96 to 97 °C | CC12CCC(C(=O)N(CCCCN3CCN(c4ccccn4)CC3)C1=O)C2(C)C (stereo not drawn)
43 to 45 °C | CNC(=S)NCCCc1ncco1
114 to 116 °C | Cc1cc(N)c(Cl)c(N)c1
122 to 125 °C | Cc1ccc(OCCCCCNc2cccc3c2C(=O)c2cccc4[nH]nc-3c24)cc1
107 to 108 °C | CCOC(=O)N(C(=S)NC(C)C)c1c(C(C)C)cc(Oc2ccccc2)cc1C(C)C
108 to 110 °C | CCOc1cc(C(=O)c2c(-c3ccc(OC)cc3)sc3cc(OC)ccc23)cc(OCC)c1OCC
111 °C | c1cc(CN2CCCCC2)cc(OCCCNc2ncnc3ccccc23)c1
169 to 173 °C | CC(C)COC(=O)N1CCC(c2ccc3oc(-c4ccc(S(C)(=O)=O)cc4F)nc3c2)CC1
148 to 149 °C | CC(CC(F)(F)CC(C)(C)O)C1CCC2C3CC=C4CC(O)CCC4(C)C3CCC12C (stereo not drawn)
263 to 265 °C | O=C(c1ccc(OCC2CC2)c2oc3ccccc3c12)[NH+]([O-])c1c(Cl)cncc1Cl (stereo not drawn)
169 to 170 °C | CC1CC(C(=O)O)NC1=O (stereo not drawn)
